Assay results: patent US12540161B2, “Linkers” (BicycleTx Limited, priority 2020, dated 2026)

Assays:
[1] = Plasma stability analysis, mouse plasma; details: plasma, pH 7.4, Mouse plasma t1/2 (EDTA), BTCs, EDTA anticoagulant
Procedure: Pooled frozen plasma was thawed in a water bath at 37° C. Plasma was centrifuged at 4000 rpm for 5 min and the clots were removed if any. The pH will be adjusted to 7.4±0.1 if required. 1 mM stock solution was prepared with DMSO. Propantheline (positive control) was prepared by making a 100 μM working solution by diluting 5 μL of the stock solution (10 mM) with 495 μL ultra pure water. 100 μM working solutions of test compounds were made up by diluting 10 μL of the stock solution (1 mM) with 90 μL DMSO. 98 μL of blank plasma was spiked with 2 μL of dosing solution (100 μM) to achieve 2 μM of the final concentration in duplicate and samples were incubated at 37° C. in a water bath. […] An aliquot of supernatant (150 μL) was transferred from each well before submitting for LC-MS/MS analysis.
The % remaining test compound after incubation in plasma was calculated using following equation: Remaining=100×(PAR at appointed incubation time/PAR at T0 time)
where PAR is the peak area ratio of analyte versus internal standard (IS).
The half-life (T½) was calculated from a log linear plot of concentration versus time.

Cathepsin B = Cathepsin B (Homo sapiens, UniProt P07858); test: Cathepsin B (CatB) cleavage assay; assay type: biochemical; details: BTCs; for half-life at 40 μM: read-out: CatB t1/2 (converted)
Procedure: 15 μL of test compound solution (2 mM in DMSO) was added to the incubation plate in duplicate. 30 μL of Cathepsin B stock solution (16 μM) was pre-activated with 1500 μL activation buffer for 10 min at room temperature. The Cathepsin B solution was diluted in 13.17 mL water, then 735 μL activatived enzyme mixture was added to the incubation plate. The mixture was incubated at 37° C. in a waterbath. […] The samples were mixed and centrifuged at 4000 rpm for 20 min. 50 μL of supernatant was taken into a new plate containing 150 μL ultra-pure water and the samples mixed thoroughly before submitting to LC-MS/MS analysis.

in vitro [2] = details: mouse, plasma
in vitro [3] = details: rat, plasma, Plasma protein binding (% Unbound) Rat

Structure (SMILES) | half-life at 2 μM [1] [h] | % Parent remaining after incubation with CatB, 0 h (Cathepsin B) [%] | % Parent remaining after incubation with CatB, 1 h (Cathepsin B) [%] | % Parent remaining after incubation with CatB, 2 h (Cathepsin B) [%] | % Parent remaining after incubation with CatB, 4 h (Cathepsin B) [%] | % Parent remaining after incubation with CatB, 6 h (Cathepsin B) [%] | % Parent remaining after incubation with CatB, 24 h (Cathepsin B) [%] | half-life at 40 μM (Cathepsin B) [h] | fraction unbound (in vitro [2]) | fraction unbound (in vitro [3])
CC[C@H](C)[C@@H]([C@@H](CC(=O)N1CCC[C@H]1[C@H](OC)[C@@H](C)C(=O)N[C@H](C)[C@@H](O)c1ccccc1)OC)N(C)C(=O)[C@@H](NC(=O)[C@H](C(C)C)N(C)C(=O)OCc1ccc(NC(=O)[C@H](CCN)NC(=O)[C@H](Cc2ccc3ccccc3c2)NC(=O)[C@H](CCC(=O)O)NC(=O)Cn2cc(CCC(=O)NCCC(=O)N(C)CC(=O)N(C)CC(=O)N(C)CC(=O)N(C)CC(=O)N(C)CC(=O)N(C)CC(=O)N(C)CC(=O)N(C)CC(=O)N(C)CC(=O)N(C)CC(=O)N[C@@H](C)C(=O)N[C@H]3CN(C)Cc4cc5cc(c4)CN(C)C[C@@H](C(N)=O)NC(=O)[C@H](C(C)(C)C)NC(=O)[C@H](CC(=O)O)NC(=O)[C@H](Cc4ccc(O)cc4)NC(=O)[C@H](Cc4ccccc4)NC(=O)[C@H](CC(=O)O)NC(=O)[C@H](CCC(=O)O)NC(=O)[C@H](CSC5)NC(=O)[C@@H](C)NC(=O)[C@H](Cc4cccc5ccccc45)NC(=O)[C@H](CCC(=O)O)NC(=O)[C@H](CC(N)=O)NC(=O)[C@@H](C)NC3=O)nn2)cc1)C(C)C [BCY10986, MMAE-PAB-(Dab-2Nal-Glu)-BCY3900] | 50.1 | 100 | 9.7346 | 0 | 0 | 0 | 0 | 0.3 | 0.071 | 0.115
CC[C@H](C)[C@@H]([C@@H](CC(=O)N1CCC[C@H]1[C@H](OC)[C@@H](C)C(=O)N[C@H](C)[C@@H](O)c1ccccc1)OC)N(C)C(=O)[C@@H](NC(=O)[C@H](C(C)C)N(C)C(=O)OCc1ccc(NC(=O)[C@H](CN)NC(=O)[C@@H](NC(=O)[C@H](CCC(=O)O)NC(=O)Cn2cc(CCC(=O)NCCC(=O)N(C)CC(=O)N(C)CC(=O)N(C)CC(=O)N(C)CC(=O)N(C)CC(=O)N(C)CC(=O)N(C)CC(=O)N(C)CC(=O)N(C)CC(=O)N(C)CC(=O)N[C@@H](C)C(=O)N[C@H]3CN(C)Cc4cc5cc(c4)CN(C)C[C@@H](C(N)=O)NC(=O)[C@H](C(C)(C)C)NC(=O)[C@H](CC(=O)O)NC(=O)[C@H](Cc4ccc(O)cc4)NC(=O)[C@H](Cc4ccccc4)NC(=O)[C@H](CC(=O)O)NC(=O)[C@H](CCC(=O)O)NC(=O)[C@H](CSC5)NC(=O)[C@@H](C)NC(=O)[C@H](Cc4cccc5ccccc45)NC(=O)[C@H](CCC(=O)O)NC(=O)[C@H](CC(N)=O)NC(=O)[C@@H](C)NC3=O)nn2)C(C)C)cc1)C(C)C [BCY10982, MMAE-PAB-(Dap-Val-Glu)-BCY3900] | 55.9 | 100 | 85.435 | 82.3 | 73.1 | 72.3 | 73.91 | > 57.8 | – | –
